Columns and labels:
lumbar motoneurons = assay: Motoneuron death following limb bud removal; format: in vivo, chick
Excerpt: Peptides. Two peptide inhibitors of ICE, Acetyl-Tyr-Val-Ala-Asp-aldehyde (Ac-YVAD-CHO) and Acetyl-Tyr-Val-Ala-Asp-chloromethylketone (Ac-YVAD-CMK) and two control peptide inhibitors, Acetyl-Leu-Leu-Arg-aldehyde (Ac-LLR-CHO; Leupeptin) and n-tosyl-Lys-chloromethyl-ketone (Tos-Lys-CMK) were synthesized by Bachem Biosciences (King of Prussia, Pa.) and shown by thin layer chromatography and HPLC to be greater than 98% pure. […] Methods for administration of peptides to examine effects on naturally occurring motoneuron cell death in vivo. Although cell death of lumbar motoneurons occurs between E6 and E12, the peak period of death (i.e., the greatest number of pyknotic cells) occurs on E8 (Oppenheim et al., J Comp. Neurol. 177:87-112 (1978)). For these experiments, embryos were given a single administration of an agent on E8 0 hr and sacrificed 15 hours later. […] Ac-YVAD-CMK and Tos-Lys-CMK were administered in a solution of DMSO/BSA, whereas Ac-YVAD-CHO and leupeptin (Sigma) were in BSA alone. The solutions (50-100 μl) were dropped onto the highly vascularized chorioallantoic membrane through a window in the shell. The control groups included both DMSO and BSA or vehicle alone. Embryos were killed and staged by the Hamburger-Hamilton series (Hamburger and Hamilton, J. Morph. 88:49-92 (1951)). The thoraco-lumbar spinal cord was dissected, fixed in Camoys or Bouins fixative, processed for paraffin histology, serially sectioned (10-12 μm) and stained with either thionin or hematoxylin and eosin. Pyknotic motoneurons were identified based on criteria previously described (Chu-Wang and Oppenheim, J. Comp. Neurol. 177:33-58 (1978); Clarke and Oppenheim In Methods in Cell Biology Series; Cell Death; eds: Schwartz and Osborne. Academic Press. New York, N.Y. In press.) and were counted in every 10th or 20th section through the entire lumbar enlargement. The total number of pyknotic cells were then estimated by multiplying these values by 10 or 20. All cell counts were performed by individuals blinded with regard to drug treatment of the embryos. Methods for limb bud removal experiments. A unilateral limb bud removal was performed on E2 as described previously (Oppenheim et al., J. Comp. Neurol. 177:87-112 (1978)). Because induced cell death following limb removal begins on E5 (before that there is no difference in the number of motoneurons between the operated or unoperated sides) embryos were given one treatment of Ac-YVAD-CHO (40 μg) or BSA (control) at E5-0 hr and another at E5-12 hours (total peptide administered was 80 μg). Animals were killed at E6-0 hr. Methods were the same as described above except the section thickness was 6-8 μm (see Method for Administration of Peptides, above). Methods for limb bud interdigital regions. Embryos were treated with 100 μg of peptide or vehicle in 50 μl on E6.0 and on E7.0 (total 200 μg) as described above (Chu-Wang and Oppenheim, J. Comp. Neurol. 177:33-58 (1978); Clarke and Oppenheim In Methods in Cell Biology Series; Cell Death; eds: Schwartz and Osborne. Academic Press. New York, N.Y. In press.) and killed at E7.5. The footpads were placed in Bouin's fixative and processed as described above (see Method of Limb Bud Removal, above). Pyknotic cells in all interdigital regions were counted in every 10th section (6-8 μm) of serial transverse sections through the entire footpad.

[1] = tested on: undifferentiated neurons and precursor cells in the neural tube; assay: Cell death in the early neural tube in vivo; design: species or system chick
ICE = target: T1, ICE (Homo sapiens, UniProt P29466); settings: protease activity of ICE; cited from earlier work
T1 sequence (P29466 120-297): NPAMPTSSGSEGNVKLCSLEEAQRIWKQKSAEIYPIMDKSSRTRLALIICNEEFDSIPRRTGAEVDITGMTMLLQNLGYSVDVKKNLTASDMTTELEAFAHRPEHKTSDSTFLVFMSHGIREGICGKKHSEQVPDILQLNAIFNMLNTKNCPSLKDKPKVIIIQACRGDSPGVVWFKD
T1 sequence (P29466 317-404): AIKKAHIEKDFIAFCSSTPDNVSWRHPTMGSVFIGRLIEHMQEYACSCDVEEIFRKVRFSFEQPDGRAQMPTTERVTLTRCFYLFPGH

[2] = limb bud removal on E2, 40 μg at E5-0 hr and E5-12 hours, mean ±SD
[3] = unoperated side, 40 μg at E5-0 hr and E5-12 hours, mean ±SD

Acetyl-Tyr-Val-Ala-Asp-aldehyde [Ac-YVAD-CHO]
survival promoting effect (lumbar motoneurons; following limb bud removal): no survival promoting effect | Healthy Motoneurons (lumbar) on E6, Ipsilateral (lumbar motoneurons; [2]): 11,109 ± 1592 | Pyknotic Motoneurons (lumbar) on E6, Ipsilateral (lumbar motoneurons; [2]): 317 ± 89 | Healthy Motoneurons (lumbar) on E6, Contralateral (lumbar motoneurons; [3]): 17,914 ± 1733 | Pyknotic Motoneurons (lumbar) on E6, Contralateral (lumbar motoneurons; [3]): 67 ± 13 | survival promoting effects on floorplate or dorsal spinal cord cells ([1]; compared to control animals): no survival promoting effects | Pyknotic Cells in the Early Neural Tube, Dorsal Spinal Cord ([1]; mean ±SD): 1.350 ± 0.297 | Pyknotic Cells in the Early Neural Tube, Floor Plate ([1]; mean ±SD): 1.115 ± 0.246 | Ki (ICE): 0.76 nM

Source: patent US6939850B2, “Altered human interleukin-1β convertase (ICE), NEDD-2, and C. elegans ced-3 polypeptides and uses therefor” (Massachusetts Institute of Technology, priority 1992, dated 2005)
